According to patent US20260041744A1, “Methods for Treating Pompe Disease” (Amicus Therapeutics, Inc., priority 2022, published 2026):

Legend:
[1] = test system: adults with Pompe disease; test: Study ATB200-02: urine Hex4; settings: for mean reduction from baseline in urine Hex4: b512 prints a minus sign;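 as to all read-outs here: Hex4 is the urine glucose tetrasaccharide biomarker, measured at regular intervals during study follow-up and compared with each patient's baseline value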
Description: The change from baseline (CFBL) in 6MWD, % predicted sitting FVC, manual muscle test (MMT) and biomarkers—urine glucose tetrasaccharide (Hex4) and serum creatine kinase (CK)—were assessed at regular intervals.

[2] = test system: adults with Pompe disease; test: Study ATB200-02: GSGC, 10MWT, TUG; format: in vivo, human
Description: The study design includes 4 stages and 4 cohorts, with Stages 1 and 2 only for Cohort 1 and Stages 3 and 4 for all 4 cohorts (FIG. 79).
The 4 cohorts in the study are as follows: • Cohort 1: ERT-experienced (2 to 6 years) ambulatory subjects (11 subjects) • Cohort 2: ERT-experienced (≥2 years) non-ambulatory subjects (6 subjects) • Cohort 3: ERT-naïve ambulatory subjects (6 subjects)· • Cohort 4: ERT-experienced (≥7 years) ambulatory subjects (6 subjects)

[3] = test system: adults with Pompe disease; test: Study ATB200-02: manual muscle test (MMT lower extremity, upper body, total); format: in vivo, human; settings: for MMT total score (upper body) change from baseline, mean: Cohort 2 (non-ambulatory ERT-experienced)
Description: Results for lower extremity MMT are shown in Table 25 and FIGS. 48A and 48B.

[4] = test system: adult subjects with Pompe disease; test: Pooled Studies ATB200-02/03/07: GSGC total score by exposure interval
Description: The pooled efficacy analyses presented within this section include the outlier (Pool 2). […] Pooled efficacy analyses excluding the outlier subject (Pool 2A) were also performed.
Note that a negative score indicates an improvement.

[5] = Ambulatory ERT-experienced, 12 months
[6] = Ambulatory ERT-experienced, 24 months
[7] = Ambulatory ERT-experienced, 36 months
[8] = Ambulatory ERT-experienced, 48 months
[9] = Ambulatory ERT-naïve, 12 months
[10] = Ambulatory ERT-naïve, 24 months
[11] = Ambulatory ERT-naïve, 36 months
[12] = Ambulatory ERT-naïve, 48 months
[13] = Non-ambulatory ERT-experienced, 12 months
[14] = Non-ambulatory ERT-experienced, 24 months
[15] = Non-ambulatory ERT-experienced, 36 months
[16] = Cohort 1 + Cohort 3 + Cohort 4, 24-mo
[17] = Cohort 1 + Cohort 3 + Cohort 4, 48-mo
[18] = Cohort 1 + Cohort 4 (ERT-experienced), 48-mo
[19] = Cohort 1 + Cohort 3 + Cohort 4, Month 12
[20] = Cohort 1 + Cohort 3 + Cohort 4, Month 24
[21] = Cohort 1 + Cohort 3 + Cohort 4, Month 36
[22] = Cohort 1 + Cohort 3 + Cohort 4, Month 48

ATB200/miglustat: two-component therapy: cipaglucosidase alfa (ATB200) administered in conjunction with miglustat (AT2221), a stabilizer of cipaglucosidase alfa
Urinary Hex4, % CFBL mean [1, 5]: −36.11% | Urinary Hex4, % CFBL mean [1, 6]: −11.8% | Urinary Hex4, % CFBL mean [1, 7]: −35.1% | Urinary Hex4, % CFBL mean [1, 8]: −4.0% | Urinary Hex4, % CFBL mean [1, 9]: −40.7% | Urinary Hex4, % CFBL mean [1, 10]: −49.5% | Urinary Hex4, % CFBL mean [1, 11]: −39.3% | Urinary Hex4, % CFBL mean [1, 12]: −39.9% | mean reduction from baseline in urine Hex4 ([1]; Cohort 2 (non-ambulatory ERT-experienced), 12 months, listed as cipaglucosidase alfa plus miglustat): 15.6% | mean reduction from baseline in urine Hex4 ([1]; Cohort 2 (non-ambulatory ERT-experienced), 12 months, listed as cipaglucosidase alfa/miglustat): −15.6% | mean reduction from baseline in urine Hex4 ([1]; Cohort 2, 24 months, listed as cipaglucosidase alfa plus miglustat): 34.1% | mean reduction from baseline in urine Hex4 ([1]; Cohort 2, 24 months, listed as cipaglucosidase alfa/miglustat): −34.1% | mean reduction from baseline in urine Hex4 ([1]; Cohort 2, 36 months, listed as cipaglucosidase alfa plus miglustat): 36.5% | mean reduction from baseline in urine Hex4 ([1]; Cohort 2, 36 months, listed as cipaglucosidase alfa/miglustat): −36.5% | mean reduction from baseline in urine Hex4 ([1]; Cohort 2, 48 months, listed as cipaglucosidase alfa plus miglustat): 9.4% | mean reduction from baseline in urine Hex4 ([1]; Cohort 2, 48 months, listed as cipaglucosidase alfa/miglustat): −4.0% | patients with abnormal baseline Hex4 who had normal Hex4 levels at Month 48 ([1]; ERT-experienced (four of five)): 80.0% | patients whose urine Hex4 decreased numerically from baseline (n/N) ([1]; ERT-experienced, 12 months): 16/16 | patients whose urine Hex4 decreased numerically from baseline (n/N) ([1]; ERT-experienced, 24 months): 11/14 | patients whose urine Hex4 decreased numerically from baseline (n/N) ([1]; ERT-experienced, 36 months): 11/12 | patients whose urine Hex4 decreased numerically from baseline (n/N) ([1]; ERT-experienced, 48 months): 6/9 | patients with abnormal baseline Hex4 who returned to normal Hex4 levels at Month 48 ([1]; ERT-naïve ambulatory (one of four)): 25.0% | patients whose urine Hex4 decreased numerically from baseline (n/N) ([1]; ERT-naïve, 12 months): 5/6 | patients whose urine Hex4 decreased numerically from baseline (n/N) ([1]; ERT-naïve, 24 months): 5/6 | patients whose urine Hex4 decreased numerically from baseline (n/N) ([1]; ERT-naïve, 36 months): 4/5 | patients whose urine Hex4 decreased numerically from baseline (n/N) ([1]; ERT-naïve, 48 months): 4/5 | Urinary Hex4, % CFBL mean [1, 13]: −15.6% | Urinary Hex4, % CFBL mean [1, 14]: −34.1% | Urinary Hex4, % CFBL mean [1, 15]: −36.5% | Urinary Hex4, % CFBL mean ([1]; Non-ambulatory ERT-experienced, 48 months): −9.4 ) % | 10-Meter Walk Test, CFBL mean [2, 5]: −0.1 seconds | Gait, Stairs, Gowers, and Chair, CFBL mean [2, 5]: −1.3 | Timed Up and Go, CFBL mean [2, 5]: -1.5 s | 10-Meter Walk Test, CFBL mean [2, 6]: 1.0 seconds | Gait, Stairs, Gowers, and Chair, CFBL mean [2, 6]: −1.6 | Timed Up and Go, CFBL mean [2, 6]: 0.1 s | 10-Meter Walk Test, CFBL mean [2, 7]: 3.9 seconds | Gait, Stairs, Gowers, and Chair, CFBL mean [2, 7]: −1.1 | Timed Up and Go, CFBL mean [2, 7]: -1.5 s | 10-Meter Walk Test, CFBL mean [2, 8]: 0.6 seconds | Gait, Stairs, Gowers, and Chair, CFBL mean [2, 8]: −1.0 | Timed Up and Go, CFBL mean [2, 8]: -0.6 s | 10-Meter Walk Test, CFBL mean [2, 9]: −0.9 seconds | Gait, Stairs, Gowers, and Chair, CFBL mean [2, 9]: −0.8 | Timed Up and Go, CFBL mean [2, 9]: -0.7 s | 10-Meter Walk Test, CFBL mean [2, 10]: −0.5 seconds | Gait, Stairs, Gowers, and Chair, CFBL mean [2, 10]: −1.7 | Timed Up and Go, CFBL mean [2, 10]: -1.0 s | 10-Meter Walk Test, CFBL mean [2, 11]: 0.1 seconds | Gait, Stairs, Gowers, and Chair, CFBL mean [2, 11]: −2.0 | Timed Up and Go, CFBL mean [2, 11]: 0.5 s | 10-Meter Walk Test, CFBL mean [2, 12]: 0.7 seconds | Gait, Stairs, Gowers, and Chair, CFBL mean [2, 12]: −2.4 | Timed Up and Go, CFBL mean [2, 12]: 0.3 s | GSGC CFB, mean [2, 16]: −1.7 | GSGC CFB, mean [2, 17]: −1.5 | GSGC CFB, mean ([2]; Cohort 1 + Cohort 4 (ERT-experienced), 24-mo, negative = improvement): −1.6 | GSGC CFB, mean [2, 18]: −1.0 | GSGC CFB, mean ([2]; Cohort 3 (ERT-naïve), 24-mo): −1.7 | GSGC CFB, mean ([2]; Cohort 3 (ERT-naïve), 48-mo): −2.4 | other measures of motor function incl. 10MWT, GSGC, TUG ([2]; ERT-experienced and ERT-naïve ambulatory subjects): improvements in other measures of motor function | muscle strength by MMTs and QMTs ([3]; 48 months): stable or improved muscle strength in the lower and upper extremities and proximal muscle groups | Lower body MMT score, CFBL mean [3, 5]: 3.1 | Total MMT score, CFBL mean [3, 5]: 4.3 | Upper body MMT score, CFBL mean [3, 5]: 1.3 | Lower body MMT score, CFBL mean [3, 6]: 2.1 | Total MMT score, CFBL mean [3, 6]: 2.5 | Upper body MMT score, CFBL mean [3, 6]: 0.5 | Lower body MMT score, CFBL mean [3, 7]: 2.5 | Total MMT score, CFBL mean [3, 7]: 3.6 | Upper body MMT score, CFBL mean [3, 7]: 0.8 | Lower body MMT score, CFBL mean [3, 8]: 3.5 | Total MMT score, CFBL mean [3, 8]: 4.0 | Upper body MMT score, CFBL mean [3, 8]: 0.5 | Lower body MMT score, CFBL mean [3, 9]: 2.8 | Total MMT score, CFBL mean [3, 9]: 2.4 | Upper body MMT score, CFBL mean [3, 9]: 0.0 | Lower body MMT score, CFBL mean [3, 10]: 3.0 | Total MMT score, CFBL mean [3, 10]: 2.0 | Upper body MMT score, CFBL mean [3, 10]: −1.5 | Lower body MMT score, CFBL mean [3, 11]: (3.3 | Total MMT score, CFBL mean [3, 11]: 3.5 | Upper body MMT score, CFBL mean [3, 11]: 1.0 | Lower body MMT score, CFBL mean [3, 12]: (1.0) | Total MMT score, CFBL mean [3, 12]: −1.3 | Upper body MMT score, CFBL mean [3, 12]: −1.4 | MMT (total score) CFB, mean [3, 16]: 2.4 | MMT (total score) CFB, mean [3, 17]: 2.3 | MMT lower extremity score change from baseline, mean [3, 19]: 3.0 | MMT lower extremity score change from baseline, median [3, 19]: 3.0 | MMT lower extremity score change from baseline, mean [3, 20]: 2.3 | MMT lower extremity score change from baseline, median [3, 20]: 2.0 | MMT lower extremity score change from baseline, mean [3, 21]: 2.7 | MMT lower extremity score change from baseline, median [3, 21]: 2.0 | MMT lower extremity score change from baseline, mean [3, 22]: 2.7 | MMT lower extremity score change from baseline, median [3, 22]: 3.0 | MMT (total score) CFB, mean ([3]; Cohort 1 + Cohort 4 (ERT-experienced), 24-mo): 2.5 | MMT (total score) CFB, mean [3, 18]: 4.0 | MMT lower extremity score change from baseline, mean ([3]; Cohort 1 + Cohort 4 (ERT-experienced), Month 12): 3.1 pts | MMT lower extremity score change from baseline, mean ([3]; Cohort 1 + Cohort 4 (ERT-experienced), Month 24): 2.1 pts | MMT lower extremity score change from baseline, mean ([3]; Cohort 1 + Cohort 4 (ERT-experienced), Month 36): 2.5 pts | MMT lower extremity score change from baseline, mean ([3]; Cohort 1 + Cohort 4 (ERT-experienced), Month 48): 3.5 pts | MMT lower extremity score change from baseline, median ([3]; Cohort 1 + Cohort 4, Month 12): 2.0 | MMT lower extremity score change from baseline, median ([3]; Cohort 1 + Cohort 4, Month 24): 2.0 | MMT lower extremity score change from baseline, median ([3]; Cohort 1 + Cohort 4, Month 36): 1.5 | MMT lower extremity score change from baseline, median ([3]; Cohort 1 + Cohort 4, Month 48): 3.0 | MMT total score (upper body) change from baseline, mean ([3]; month 12): +1.3 pts | MMT total score (upper body) change from baseline, mean ([3]; month 24): +2.0 pts | MMT total score (upper body) change from baseline, mean ([3]; month 36): −0.8 pts | MMT (total score) CFB, mean ([3]; Cohort 3 (ERT-naïve), 24-mo): 2.0 | MMT (total score) CFB, mean ([3]; Cohort 3 (ERT-naïve), 48-mo): −1.3 | MMT lower extremity score change from baseline, mean ([3]; Cohort 3 (ERT-naïve), Month 12): 2.8 pts | MMT lower extremity score change from baseline, mean ([3]; Cohort 3 (ERT-naïve), Month 24): 3.0 pts | MMT lower extremity score change from baseline, mean ([3]; Cohort 3 (ERT-naïve), Month 36): 3.3 pts | MMT lower extremity score change from baseline, mean ([3]; Cohort 3 (ERT-naïve), Month 48): 1.0 pts | MMT lower extremity score change from baseline, median ([3]; Cohort 3, Month 12): 4.0 | MMT lower extremity score change from baseline, median ([3]; Cohort 3, Month 24): 3.0 | MMT lower extremity score change from baseline, median ([3]; Cohort 3, Month 36): 3.5 | MMT lower extremity score change from baseline, median ([3]; Cohort 3, Month 48): 2.0 | patients whose MMT lower extremity score improved numerically from baseline (n/N) ([3]; ERT-experienced ambulatory, 12 months): 14/15 | patients whose MMT lower extremity score improved numerically from baseline (n/N) ([3]; ERT-experienced ambulatory, 24 months): 11/13 | patients whose MMT lower extremity score improved numerically from baseline (n/N) ([3]; ERT-experienced ambulatory, 36 months): 10/10 | patients whose MMT lower extremity score improved numerically from baseline (n/N) ([3]; ERT-experienced ambulatory, 48 months): 8/8 | patients whose MMT lower extremity score improved numerically from baseline (n/N) ([3]; ERT-naïve, 12 months): 4/5 | patients whose MMT lower extremity score improved numerically from baseline (n/N) ([3]; ERT-naïve, 24 months): 4/5 | patients whose MMT lower extremity score improved numerically from baseline (n/N) ([3]; ERT-naïve, 36 months): 4/4 | patients whose MMT lower extremity score improved numerically from baseline (n/N) ([3]; ERT-naïve, 48 months): 3/4 | Total MMT score, CFBL mean [3, 13]: 1.3 | Upper body MMT score, CFBL mean [3, 13]: 1.3 | Total MMT score, CFBL mean [3, 14]: 2.0 | Upper body MMT score, CFBL mean [3, 14]: 2.0 | Total MMT score, CFBL mean [3, 15]: −0.8 | Upper body MMT score, CFBL mean [3, 15]: −0.8 | mean (SD) change from baseline in GSGC total score ([4]; exposure >15 to ≤24 months (n=87)): -0.86 (3.086) | mean (SD) change from baseline in GSGC total score ([4]; exposure >24 months (n=56)): −1.12 (3.586) | mean (SD) change from baseline in GSGC total score ([4]; exposure ≤15 months (n=123), negative = improvement): -0.51 (2.947)
